Values quoted from earlier work, collected in patent US20260053727A1, “PERSONAL CARE COMPOSITIONS WITH ENZYME-MODIFIED OILS (EMOS)” (GLYCOSBIO INC., priority 2023, published 2026).

Details: commonly known

Which antimicrobial activity does the source give for `O=C([O-])c1ccccc1.[Na+]` [sodium benzoate] here?
Its antimicrobial activity is “weakly antimicrobial”.
